Laboratory results: US8003324B2, “Modulation of sodium channels by nicotinamide adenine dinucleotide” (U.S. Department of Veterans Affairs, priority 2007, dated 2011)
“And” between values parts separate entries of the source, which are not always exact repeats. Equal values may be shown once. “Also recorded” adds a separate entry of the source.

What was measured:
HEK 293 cell (SCN5A) = format: cell-based; conditions: human, 24 h
Experimental: Human embryonic kidney (HEK) cell line was used for all experiments. A HEK cell line stably expressing a SCN5A-IRES-GFP construct as described in our previous study (Arnold et al., Hearth Rhythm 4:46-53 (2007)) was maintained by antibiotic selection using 0.2 mg/mL Geneticin (G-8168, Sigma-Aldrich). Cells were cultured in Dulbecco's modified Eagle's medium (DMEM; ATCC, Manassas, Va.) with 10% fetal calf serum (ATCC) at 37° C. in 60 mm×15 mm cell culture dishes (Corning Incorporated, Corning, N.Y.) until 70-80% confluence. After reaching confluence, cells were exposed to NADH (Sigma, St. Louis, Mo.) or NAD^+ (Sigma) in culture medium for a total of 12-14 h in triplicate. Experiments were repeated three times. After dissociation with 0.125% trypsin-EDTA, 40 μL of 0.4% Trypan-blue (Sigma, St. Louis, Mo.) was added to each well, and a Trypan-blue exclusion viability assay was performed.
As previously described, we maintained a human embryonic kidney (HEK) cell line that stably expresses the human cardiac Na^+ channel (SCN5A) with antibiotic selection using 0.2 mg/mL geneticin (G-8168, Sigma-Aldrich, St. Louis, Mo.) (23). Expression of SCN5A was linked to green fluorescent protein (GFP) expression by an internal ribosomal entry site (SCN5A-IRES-GFP). Cells were cultured in Dulbecco's modified Eagle's medium (DMEM; ATCC, Manassas, Va.) with 10% fetal calf serum (ATCC) at 37° C. in 60 mm×15 mm cell culture dishes (Corning Incorporated, Corning, N.Y.) until 70-80% confluency. Then, cells were exposed to NADH or NAD^+ (both from Sigma-Aldrich) in culture medium for a total of 24 h. After dissociation with 0.125% trypsin-ethylenediaminetetraacetic acid (EDTA), 40 μL of 0.4% Trypan-blue (Sigma) was added to each well of a 6-well plate, and a Trypan-blue exclusion viability assay was performed. SCN5A cells were tolerant of a wide range of NADH or NAD^+ concentrations from 150 to 300 μM (data not shown). […] All NAD(H) containing solutions were made fresh daily.

[1] = molecular target: T1, human cardiac Na^+ channel (SCN5A) (Homo sapiens, UniProt Q14524); test: Whole-cell patch clamp Na+ current in HEK cells stably expressing SCN5A; format: cell-based; conditions: for effect on peak Na+ current (in words): versus SCN5A cells
T1 construct: expressed in transfected cells
T1 sequence (Q14524 whole entry): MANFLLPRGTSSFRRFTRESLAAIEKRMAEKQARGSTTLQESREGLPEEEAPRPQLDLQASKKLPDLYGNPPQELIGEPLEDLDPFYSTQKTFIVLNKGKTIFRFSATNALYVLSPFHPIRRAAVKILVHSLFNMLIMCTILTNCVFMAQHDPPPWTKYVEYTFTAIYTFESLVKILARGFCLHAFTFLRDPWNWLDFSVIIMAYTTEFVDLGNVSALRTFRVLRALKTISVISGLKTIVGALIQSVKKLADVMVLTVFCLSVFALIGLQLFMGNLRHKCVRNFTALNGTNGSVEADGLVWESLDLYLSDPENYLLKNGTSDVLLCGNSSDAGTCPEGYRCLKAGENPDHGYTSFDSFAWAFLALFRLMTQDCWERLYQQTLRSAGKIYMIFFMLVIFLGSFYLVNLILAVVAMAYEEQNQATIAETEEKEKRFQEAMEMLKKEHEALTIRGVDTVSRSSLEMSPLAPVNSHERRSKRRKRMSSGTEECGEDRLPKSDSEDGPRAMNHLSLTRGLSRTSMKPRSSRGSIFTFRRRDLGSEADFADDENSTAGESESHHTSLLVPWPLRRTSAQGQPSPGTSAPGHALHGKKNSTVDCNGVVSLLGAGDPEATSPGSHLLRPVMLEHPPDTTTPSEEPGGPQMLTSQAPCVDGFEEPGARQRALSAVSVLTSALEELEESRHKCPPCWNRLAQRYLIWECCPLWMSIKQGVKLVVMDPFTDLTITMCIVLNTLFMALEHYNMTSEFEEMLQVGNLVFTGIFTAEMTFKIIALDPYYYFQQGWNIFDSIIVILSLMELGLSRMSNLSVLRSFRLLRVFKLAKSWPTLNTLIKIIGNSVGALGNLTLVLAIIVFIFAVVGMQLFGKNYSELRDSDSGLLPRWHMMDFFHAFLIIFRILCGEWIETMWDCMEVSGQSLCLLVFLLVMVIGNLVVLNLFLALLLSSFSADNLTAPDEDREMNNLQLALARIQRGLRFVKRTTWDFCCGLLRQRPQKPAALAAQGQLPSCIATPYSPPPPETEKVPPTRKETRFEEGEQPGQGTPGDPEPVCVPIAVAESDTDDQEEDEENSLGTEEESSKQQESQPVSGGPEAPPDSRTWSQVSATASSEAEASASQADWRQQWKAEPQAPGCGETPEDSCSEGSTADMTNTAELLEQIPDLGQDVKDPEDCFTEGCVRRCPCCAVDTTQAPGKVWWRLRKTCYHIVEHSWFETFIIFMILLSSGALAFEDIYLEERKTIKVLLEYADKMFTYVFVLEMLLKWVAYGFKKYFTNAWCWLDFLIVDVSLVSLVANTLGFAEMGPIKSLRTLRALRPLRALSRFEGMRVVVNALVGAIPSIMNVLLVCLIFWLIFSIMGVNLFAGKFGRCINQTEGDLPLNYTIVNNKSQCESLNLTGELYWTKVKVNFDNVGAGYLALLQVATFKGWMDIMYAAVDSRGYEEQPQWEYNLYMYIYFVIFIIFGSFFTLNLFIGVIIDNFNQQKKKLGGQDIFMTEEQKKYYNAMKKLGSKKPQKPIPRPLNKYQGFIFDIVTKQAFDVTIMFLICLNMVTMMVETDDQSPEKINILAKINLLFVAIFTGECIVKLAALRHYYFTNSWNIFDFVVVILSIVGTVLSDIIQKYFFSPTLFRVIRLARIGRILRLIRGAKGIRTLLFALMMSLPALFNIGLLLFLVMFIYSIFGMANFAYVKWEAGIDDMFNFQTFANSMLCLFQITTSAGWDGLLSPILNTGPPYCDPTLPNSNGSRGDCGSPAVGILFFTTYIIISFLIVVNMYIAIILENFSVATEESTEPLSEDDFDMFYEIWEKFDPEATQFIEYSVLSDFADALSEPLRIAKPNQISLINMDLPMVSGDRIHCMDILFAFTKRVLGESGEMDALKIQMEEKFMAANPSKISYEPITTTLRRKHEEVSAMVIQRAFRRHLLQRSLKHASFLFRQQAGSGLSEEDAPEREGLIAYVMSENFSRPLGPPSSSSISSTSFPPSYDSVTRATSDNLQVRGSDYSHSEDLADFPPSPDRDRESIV
Experimental: HEK cells stably transfected with two different Na^+ channel constructs were used, SCN5A-IRES-GFP and SCN5A-GFP fusion constructs. Cloning and establishment of the cell lines has been delineated previously (11). The HEK 293 cell line stably expressing a SCN5A-IRES-GFP construct was maintained by antibiotic selection using Geneticin (G-8168, Sigma-Aldrich) at a concentration of 0.2 mg/mL was used for patch clamp study. GFP was used as a marker to identify cells expressing the cardiac Na^+ channel. The cells were cultured in 6 well plates with Dulbecco's Modified Eagle's medium (DMEM), 10% fetal bovine serum and 1% pen-strep. Cells were stored in a 5% CO2 incubator at 37° C. for 1-2 days. GPD1-L (the A280V mutant or wild-type) was transiently co-transfected into HEK 293 cells. GPD1-L vectors have been described in London et al.
The effects of external NADH or NAD^+ on sodium current were determined by incubating HEK 293 cells overnight (12-14 h) with NADH/NAD^+ (300 μM) added to the media. The effects of internal NADH or NAD^+ (100 μM) on sodium current were tested by adding the compounds to the pipette solution.
Cells expressing GFP were tested with the whole cell patch-clamp technique in voltage-clamp mode to measure Na^+ current levels. For patch-clamping, HEK cells were plated onto plastic coverslips 2-3 h before the recordings. Glass pipettes were pulled on a Sutter Model P-97 horizontal puller to a resistance of 1-2 MΩ. The glass pipettes were filled with a pipette solution containing (in mmol/L): CsCl 80, Cesium Aspartate 80, EGTA 11, MgCl2 1, CaCl2 1, HEPES 10, Na2ATP 5 and pH 7.4 with CsOH. The bath solution consisted of (in mmol/L): NaCl 130, CsCl 5, CaCl2 2, MgCl2 1.2, HEPES 10 and Glucose 5 (titrated to pH 7.4 with CsOH). Once a seal was established, a small amount of suction was applied to obtain the whole cell configuration. A stepped voltage protocol from −100 to +60 mV from a holding potential of −100 mV was applied to establish the presence of voltage-gated Na^+ channels. Currents obtained during steps to −10 mV were used for comparison in determining the relative reduction in sodium current. Cells were tested at 25° C. In all recordings, 80% of the series resistance was compensated, yielding a maximum voltage error of ˜1 mV. Data were sampled at 10 kHz and later filtered at 5 kHz for analysis. Currents were recorded and analyzed with an Axopatch 200B amplifier, Axon Digidata 1230A A/D converter and pClamp software (Molecular Devices Corporation, Sunnyvale, Calif.).
Using HEK 293 cells stably expressing the SCN5A-IRES-GFP construct, we measured the effect of treatments on the Na^+ current. Cells were cultured in 6-well plates in a […] incubator at 37° C. WT or MT GPD1-L was transiently transfected into HEK 293 cells as described previously in London et al. Other treatments included extracellular NADH or NAD^+ (300 μM) for […] or NADH or NAD^+ (100 μM) in the patch pipette solution. Apocynin (100 μM, Sigma) was added to cells 4-6 h prior to treatment with NADH and continuing for the entire extracellular NADH incubation. Na^+ current levels were measured from GFP-expressing cells using the whole-cell patch clamp technique in voltage-clamp mode at room temperature. HEK cells were dissociated by trypsin-EDTA, and replated onto plastic coverslips 2-3 h before the recordings. Glass pipettes were pulled on a Sutter Model P-97 horizontal puller to a resistance of 1-2 MΩ. The glass pipettes were filled with a pipette solution containing (in mM): CsCl 80, cesium aspartate 80, EGTA 11, MgCl2 1, CaCl2 1, HEPES 10, and Na2ATP 5 (adjusted to pH 7.4 with CsOH). The bath solution consisted of (in mM): NaCl 130, CsCl 5, CaCl2 2, MgCl2 1.2, HEPES 10 and Glucose 5 (adjusted to pH 7.4 with CsOH). Once a seal was established, a small amount of suction was applied to obtain the whole-cell configuration. […]

[2] = test system: human SCN5A fused at the C-terminus to GFP (SCN5A-GFP fusion); test: Na+ channel tracking (confocal microscopy of SCN5A-GFP fusion in HEK cells); format: cell-based
Experimental: An SCN5A constructed fused at the C-Terminus to GFP (SCN5A-GFP fusion) was stably transfected in HEK cells and grown on glass bottom 14 mm microwell dishes (MatTek Corporation, Ashland, Mass., USA). A Nikon (Melville, N.Y.) Diaphot 200 inverted microscope with a fluorescent lamp was used to identify cells expressing GFP. Cells expressing GFP were transiently co-transfected with MT GPD1-L or incubated overnight with NADH. Fixation was performed by washing the coverslip three times with DPBS (Dulbecco's Phosphate Buffered Saline 1× of GIBCO) and exposing them to 4% paraformaldehyde in PBS at pH 7.4. […] GFP fluorescence was observed using a 507 nm narrow bandpass filter and a 60× oil 1.4 NA objective. Quantification was done using ImageJ software.
For these experiments, a construct of human SCN5A fused at the C-terminus to GFP (SCN5A-GFP fusion) was stably transfected in HEK cells and grown on the glass bottom of 14-mm microwell dishes (MatTek Corporation, Ashland, Mass., USA). […] For imaging Na^+ channels, GFP was excited at 488 nm with an argon ion 30 mW water-cooled laser, and GFP fluorescence was observed using a 507 nm narrow bandpass filter and a 60× oil 1.4 NA objective. Quantification was done using ImageJ software.

SCN5A^+/− mouse heart = test: Ventricular arrhythmogenesis in Langendorff-perfused SCN5A+/- mouse heart (MAP recording, PES)
Experimental: Hearts from mice genetically modified to ablate one allele of SCN5A were isolated and Langendorff-perfused (3 ml/min at 37° C.) with Krebs-Henseleit solution (in mM: 119 NaCl, 25 NaHCO3, 4 KCl, 1.2 KH2PO4, 1 MgCl2, 1.8 CaCl2, 10 glucose and 2 sodium pyruvate) and allowed to beat intrinsically for 10 min. Monophasic action potentials (MAPs) were recorded using a MAP electrode (Harvard Apparatus, UK) placed on left ventricular epicardial surface. MAP signals were amplified, band-pass filtered (0.5 Hz to 1 kHz: Neurolog NL900D), digitized (1401, Cambridge Electronic Design, Cambridge, UK) and acquired using Spike 2.5 (Cambridge Electronic Design) at a 5 KHz sampling rate. A custom made, paired-platinum electrode was placed on right ventricle and used to deliver 2 ms ([…], twice the threshold) stimuli (GRASS S48 stimulator) to pace the heart at different intervals. The standard pacing protocol consisted of 8 Hz stimuli (basic cycle length, BCL 125 ms) and was delivered for 20 min to measure MAPs. This was followed by programmed electrically stimulation (PES) consisting of trains of eight paced stimuli at 125 ms BCL (S1) followed by an extra stimulus (S2). […] PES was repeated three times before and three times after the drug application in each heart. NAD^+ was perfused for 20 min to assess its anti-arrhythmic effect. Selected recordings were imported to Microsoft Excel for further statistical analysis. Average APD90 (action potential duration) was calculated by averaging 240 MAPs recorded at three different locations on each heart (80 MAPs at each location). These studies were approved by the Institutional Review Board.

[3] = 100 μM intracellular (pipette solution), at 10 min
[4] = 300 μM extracellular, overnight incubation

| SMILES | tolerated concentration range (cell viability) (HEK 293 cell (SCN5A)) [µM] | effect on Na+ current density (in words) ([1]; 100 μM in internal (pipette) solution, versus SCN5A) | increase in Na+ current (peak current) [1, 3] | effect on peak Na+ current (in words) [1, 4] | effect on peak Na+ current (in words) ([1]; 300 μM extracellular, overnight incubation, listed as NAD+) | increase in whole cell peak conductance ([1]; 300 μM extracellular, overnight, n=9) [%] | effect on the Na+ current reduction caused by MT GPD1-L (A280V) ([1]; SCN5A cells co-transfected with MT GPD1-L, external NAD+ 300 μM) | shift of activation curve ([1]; WT SCN5A cells, versus SCN5A cell) | shift of inactivation curve ([1]; versus SCN5A cell) | effect on Na+ channel protein (GFP fluorescence, in words) ([2]; 300 μM overnight, versus control SCN5A-GFP cells) | hearts in which PES failed to induce VT (SCN5A^+/− mouse heart; SCN5A+/- hearts after 20 min perfusion with 100 μM, VT in 6 out of 6 before) | reversibility: hearts with PES-induced VTs after removal (SCN5A^+/− mouse heart; SCN5A+/- hearts, NAD+ removed) | MAP duration or morphology (SCN5A^+/− mouse heart; perfusion for 20 min with 100 μM) | APD90 (SCN5A^+/− mouse heart; six SCN5A+/- hearts, 20 min perfusion with 100 μM, BCL 125 ms) [ms] | tolerated concentration range (dose-dependent cell viability) (HEK 293 cell (SCN5A)) [µmol/L] | decrease in Na+ current (peak current) [1, 3] | decrease in whole cell peak conductance ([1]; 300 μM extracellular, overnight) [%] | decrease in peak Na+ current [1, 4] | reduction in membrane-associated, GFP-tagged Na+ channels ([2]; overnight incubation with NADH, fluorescent microscopy) [fold] | effect on the NADH-induced reduction of Na+ current ([1]; apocynin 100 μM added 4-6 h before and during extracellular NADH incubation) |
| --- | --- | --- | --- | --- | --- | --- | --- | --- | --- | --- | --- | --- | --- | --- | --- | --- | --- | --- | --- | --- |
| NC(=O)c1ccc[n+]([C@H]2O[C@@H](COP(=O)(O)OP(=O)(O)OC[C@@H]3O[C@H](n4cnc5c(N)ncnc54)[C@H](O)C3O)C(O)[C@H]2O)c1 (stereo partly drawn) [NAD^+, nicotinamide adenine dinucleotide] | 150 to 300 | significantly higher | 77% and 66.6% | increase in peak current; also recorded: increased sodium current | largely restored peak current | 30.3 | prevented the loss of peak current; also recorded: increased Na^+ current at all activation potential; also recorded: reverses the decrease in peak current; also recorded: largely prevented; also recorded: prevent the reduction in Na^+ current | shift more positive | more positive | increased GFP fluorescence; also recorded: increases Na^+ channel protein | 5 out of 6 | 4 out of 6 and reversible | no significant change | 27.9 ± 1.9 | – | – | – | – | – | – |
| NC(=O)C1=CN([C@@H]2O[C@H](COP(=O)(O)OP(=O)(O)OC[C@H]3O[C@@H](n4cnc5c(N)ncnc54)[C@H](O)[C@@H]3O)[C@@H](O)[C@H]2O)C=CC1 [NADH, nicotinamide adenine dinucleotide] | 150 to 300 | – | – | – | – | – | – | – | – | – | – | – | – | – | 150 to 300 | 51% and 55.5% | 71.4 | 65.7±6.6% and 74.9% | 6.1 | – |
| COc1cc(C(C)=O)ccc1O [apocynin, reference compound] | – | – | – | – | – | – | – | – | – | – | – | – | – | – | – | – | – | – | – | abolished the effect of NADH on Na^+ current; also recorded: inhibited the effect of NADH on Na^+ currents |
